Experimental data: patent US20160200716A1, “COBICISTAT DICHLOHYDRATE SALT” (ASSIA CHEMICAL INDUSTRIES LTD., priority 2012, published 2016)
Structures can show the parent of a compound that is named as a salt.

Tests used:
[1] = Measurements of bulk density of mono- and dihydrochloride salts of Cobicistat; assay type: physicochemical; conditions: for volume filled by the salt in a glass cylinder (bulk density): about 0.30 g freely poured into glass cylinder without compaction, FIG. 12
Excerpt: Measurements of Bulk Density of Mono-and Dihydrochloride Salts of Cobicistat:
Cobicistat monohydrochloride and dihydrochloride, prepared according to examples 7 and 5 respectively, (about 0.30 g) were freely poured into two glass cylinders without compaction. While 0.30 g of Cobicistat monohydrochloride filled a volume of almost 5m1, 0.30 g of Cobicistat dihydrochloride filled a volume of less than 2m1.

[2] = Powder flowability / handling properties of Cobicistat hydrochloride salts; assay type: physicochemical; conditions: particle-shaped morphology, FIG. 9

volume filled by the salt in a glass cylinder (bulk density) [1]	bulk density compared with the monohydrochloride salt ([1]; as demonstrated in FIG. 12)	flowability of the powder material [2]	SMILES
~5 m1			CC(C)c1nc(CN(C)C(=O)N[C@@H](CCN2CCOCC2)C(=O)N[C@H](CC[C@H](Cc2ccccc2)NC(=O)OCc2cncs2)Cc2ccccc2)cs1 [Cobicistat monohydrochloride, reference compound]
less than 2 m1	substantially higher	highly flowable	CC(C)c1nc(CN(C)C(=O)N[C@@H](CCN2CCOCC2)C(=O)N[C@H](CC[C@H](Cc2ccccc2)NC(=O)OCc2cncs2)Cc2ccccc2)cs1 [Cobicistat dihydrochloride]
